From US20160271263A1 (Novo Nordisk A/S, priority 2010, published 2016)
pEC50: −log10 of the molar value. Numbered stars: 1 amine (or outer) side, 2 acyl side, 3 side chain; on linkers, the order of the positions; unused ones are H or OH. Square brackets hold non-standard residues; d marks the D form. Side chains are listed from the residue outwards. Peptide text beside a SMILES is read from it. * marks the point of attachment. C18 diacid = O=C(O)CCCCCCCCCCCCCCCCC(=O)*; γGlu = O=C(O)[C@H](CCC(=O)[*:2])N[*:1]; AEEA = NCCOCCOCC(=O)O

Biological target: glucagon receptor (Homo sapiens, UniProt P47871)
Assay: cell-based

glucagon receptor, sequence (P47871 26-477): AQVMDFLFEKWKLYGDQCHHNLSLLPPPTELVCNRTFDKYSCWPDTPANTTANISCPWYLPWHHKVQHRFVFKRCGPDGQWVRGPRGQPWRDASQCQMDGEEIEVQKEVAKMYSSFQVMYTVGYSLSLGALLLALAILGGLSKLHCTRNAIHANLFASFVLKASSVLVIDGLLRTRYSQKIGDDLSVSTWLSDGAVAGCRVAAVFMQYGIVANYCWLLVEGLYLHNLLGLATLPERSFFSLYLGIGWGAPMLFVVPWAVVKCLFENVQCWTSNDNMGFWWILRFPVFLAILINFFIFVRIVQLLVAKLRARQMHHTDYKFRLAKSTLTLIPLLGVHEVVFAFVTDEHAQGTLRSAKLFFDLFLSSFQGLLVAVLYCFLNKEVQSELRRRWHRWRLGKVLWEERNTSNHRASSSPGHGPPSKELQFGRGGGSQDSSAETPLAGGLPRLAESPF

Compound | pEC50
CC(C)C[C@H](NC(=O)[C@H](Cc1ccc(O)cc1)NC(=O)[C@H](CCCNC(=N)N)NC(=O)[C@H](CO)NC(=O)[C@H](Cc1ccc(O)cc1)NC(=O)[C@H](CC(=O)O)NC(=O)[C@H](CO)NC(=O)[C@@H](NC(=O)[C@H](Cc1ccccc1)NC(=O)[C@@H](NC(=O)CNC(=O)[C@H](CCC(N)=O)NC(=O)[C@H](CO)NC(=O)[C@@H](N)Cc1c[nH]cn1)[C@@H](C)O)[C@@H](C)O)C(=O)N[C@@H](CC(=O)O)C(=O)N[C@@H](CO)C(=O)N[C@@H](CCCNC(=N)N)C(=O)N[C@@H](CCCNC(=N)N)C(=O)N[C@@H](C)C(=O)N[C@@H](CCC(N)=O)C(=O)N[C@@H](CC(=O)O)C(=O)N[C@@H](Cc1ccccc1)C(=O)N[C@H](C(=O)N[C@@H](CCC(N)=O)C(=O)N[C@@H](Cc1c[nH]c2ccccc12)C(=O)N[C@@H](CC(C)C)C(=O)N[C@@H](CCCCNC(=O)CC[C@H](NC(=O)CC[C@H](NC(=O)COCCOCCNC(=O)COCCOCCNC(=O)CC[C@H](NC(=O)CCCCCCCCCCCCCCCCC(=O)O)C(=O)O)C(=O)O)C(=O)O)C(=O)N[C@@H](CC(N)=O)C(=O)N1CCC[C@H]1C(=O)O)C(C)C [Example 87, N^ε27-[(4S)-4-carboxy-4-[[(4S)-4-carboxy-4-[[2-[2-[2-[[2-[2-[2-[[(4S)-4-carboxy-4-(17-carboxyheptadecanoylamino)butanoyl]amino]ethoxy]ethoxy]acetyl]amino]ethoxy]ethoxy]acetyl]amino]butanoyl]amino]butanoyl]-[Arg^12,Lys^27,Pro^29]-Glucagon] | 8.67
CC(C)C[C@H](NC(=O)[C@H](Cc1ccc(O)cc1)NC(=O)[C@H](CCCCN)NC(=O)[C@H](CO)NC(=O)[C@H](Cc1ccc(O)cc1)NC(=O)[C@H](CC(=O)O)NC(=O)[C@H](CO)NC(=O)[C@@H](NC(=O)[C@H](Cc1ccccc1)NC(=O)[C@@H](NC(=O)CNC(=O)[C@H](CCC(N)=O)NC(=O)[C@H](CO)NC(=O)[C@@H](N)Cc1c[nH]cn1)[C@@H](C)O)[C@@H](C)O)C(=O)N[C@@H](CC(=O)O)C(=O)N[C@@H](CO)C(=O)N[C@@H](CCCNC(=N)N)C(=O)N[C@@H](CCCNC(=N)N)C(=O)N[C@@H](C)C(=O)N[C@@H](CCC(N)=O)C(=O)N[C@@H](CCC(=O)O)C(=O)N[C@@H](Cc1ccccc1)C(=O)N[C@H](C(=O)N[C@@H](CCCCNC(=O)CC[C@H](NC(=O)CC[C@H](NC(=O)COCCOCCNC(=O)CC[C@H](NC(=O)CCCCCCCCCCCCCCCCC(=O)O)C(=O)O)C(=O)O)C(=O)O)C(=O)N[C@@H](Cc1c[nH]c2ccccc12)C(=O)N[C@@H](CC(C)C)C(=O)N[C@@H](CC(C)C)C(=O)N[C@@H](CO)C(=O)N[C@H](C(=O)O)[C@@H](C)O)C(C)C [Example 91, N^ε24-[(4S)-4-carboxy-4-[[(4S)-4-carboxy-4-[[2-[2-[2-[[(4S)-4-carboxy-4-(17-carboxyheptadecanoylamino)butanoyl]amino]ethoxy]ethoxy]acetyl]amino]butanoyl]amino]butanoyl]-[Glu21,Lys24,Leu27,Ser28]-Glucagon] | 10.28
CC(C)C[C@H](NC(=O)[C@H](Cc1ccc(O)cc1)NC(=O)[C@H](CCCCN)NC(=O)[C@H](CO)NC(=O)[C@H](Cc1ccc(O)cc1)NC(=O)[C@H](CCC(=O)O)NC(=O)[C@H](CO)NC(=O)[C@@H](NC(=O)[C@H](Cc1ccccc1)NC(=O)[C@@H](NC(=O)CNC(=O)[C@H](CCC(N)=O)NC(=O)[C@H](CO)NC(=O)[C@@H](N)Cc1c[nH]cn1)[C@@H](C)O)[C@@H](C)O)C(=O)N[C@@H](CC(=O)O)C(=O)N[C@@H](CO)C(=O)N[C@@H](CCCNC(=N)N)C(=O)N[C@@H](CCCNC(=N)N)C(=O)N[C@@H](C)C(=O)N[C@@H](CCC(N)=O)C(=O)N[C@@H](CC(=O)O)C(=O)N[C@@H](Cc1ccccc1)C(=O)N[C@H](C(=O)N[C@@H](CCCCNC(=O)CC[C@H](NC(=O)CC[C@H](NC(=O)COCCOCCNC(=O)CC[C@H](NC(=O)CCCCCCCCCCCCCCCCC(=O)O)C(=O)O)C(=O)O)C(=O)O)C(=O)N[C@@H](Cc1c[nH]c2ccccc12)C(=O)N[C@@H](CC(C)C)C(=O)N[C@@H](CC(C)C)C(=O)N[C@@H](CO)C(=O)N[C@H](C(=O)O)[C@@H](C)O)C(C)C [Example 92, N^ε24-[(4S)-4-carboxy-4-[[(4S)-4-carboxy-4-[[2-[2-[2-[[(4S)-4-carboxy-4-(17-carboxyheptadecanoylamino)butanoyl]amino]ethoxy]ethoxy]acetyl]amino]butanoyl]amino]butanoyl]-[Glu^9,Lys^24,Leu^27,Ser^28]-Glucagon] | 8.66
CC(C)C[C@H](NC(=O)[C@H](Cc1ccc(O)cc1)NC(=O)[C@H](CCCCN)NC(=O)[C@H](CO)NC(=O)[C@H](Cc1ccc(O)cc1)NC(=O)[C@H](CC(=O)O)NC(=O)[C@H](CO)NC(=O)[C@@H](NC(=O)[C@H](Cc1ccccc1)NC(=O)[C@@H](NC(=O)CNC(=O)[C@H](CCC(N)=O)NC(=O)[C@H](CO)NC(=O)[C@@H](N)Cc1c[nH]cn1)[C@@H](C)O)[C@@H](C)O)C(=O)N[C@@H](CC(=O)O)C(=O)N[C@@H](CO)C(=O)N[C@@H](CCCNC(=N)N)C(=O)N[C@@H](CCCNC(=N)N)C(=O)N[C@@H](C)C(=O)N[C@@H](CCC(=O)O)C(=O)N[C@@H](CCC(=O)O)C(=O)N[C@@H](Cc1ccccc1)C(=O)N[C@H](C(=O)N[C@@H](CCCCNC(=O)CC[C@H](NC(=O)CC[C@H](NC(=O)COCCOCCNC(=O)CC[C@H](NC(=O)CCCCCCCCCCCCCCCCC(=O)O)C(=O)O)C(=O)O)C(=O)O)C(=O)N[C@@H](Cc1c[nH]c2ccccc12)C(=O)N[C@@H](CC(C)C)C(=O)N[C@@H](CC(C)C)C(=O)N[C@@H](CO)C(=O)N[C@H](C(=O)O)[C@@H](C)O)C(C)C [Example 93, N^ε24-[(4S)-4-carboxy-4-[[(4S)-4-carboxy-4-[[2-[2-[2-[[(4S)-4-carboxy-4-(17-carboxyheptadecanoylamino)butanoyl]amino]ethoxy]ethoxy]acetyl]amino]butanoyl]amino]butanoyl]-[Glu^20,Glu^21,Lys^24,Leu^27,Ser^28]-Glucagon] (H-HSQGTFTSDYSKYLDSRRAEEFVK([γGlu-γGlu-AEEA-γGlu-C18 diacid])WLLST-OH) | 9.92
CC(C)C[C@H](NC(=O)[C@H](Cc1ccc(O)cc1)NC(=O)[C@H](CCCCN)NC(=O)[C@H](CO)NC(=O)[C@H](Cc1ccc(O)cc1)NC(=O)[C@H](CC(=O)O)NC(=O)[C@H](CO)NC(=O)[C@@H](NC(=O)[C@H](Cc1ccccc1)NC(=O)[C@@H](NC(=O)CNC(=O)[C@H](CCC(N)=O)NC(=O)[C@H](CO)NC(=O)[C@@H](N)Cc1c[nH]cn1)[C@@H](C)O)[C@@H](C)O)C(=O)N[C@@H](CC(=O)O)C(=O)N[C@@H](CO)C(=O)N[C@@H](CCCNC(=N)N)C(=O)N[C@@H](CCCNC(=N)N)C(=O)N[C@@H](C)C(=O)N[C@@H](CCCCNC(=O)CC[C@H](NC(=O)CC[C@H](NC(=O)COCCOCCNC(=O)COCCOCCNC(=O)CC[C@H](NC(=O)CCCCCCCCCCCCCCCCC(=O)O)C(=O)O)C(=O)O)C(=O)O)C(=O)N[C@@H](CC(=O)O)C(=O)N[C@@H](Cc1ccccc1)C(=O)N[C@H](C(=O)N[C@@H](CCC(N)=O)C(=O)N[C@@H](Cc1c[nH]c2ccccc12)C(=O)N[C@@H](CC(C)C)C(=O)N[C@@H](CC(C)C)C(=O)N[C@@H](CC(N)=O)C(=O)N[C@H](C(=O)O)[C@@H](C)O)C(C)C [Example 98, N^ε20-[(4S)-4-carboxy-4-[[(4S)-4-carboxy-4-[[2-[2-[2-[[2-[2-[2-[[(4S)-4-carboxy-4-(17-carboxyheptadecanoylamino)butanoyl]amino]ethoxy]ethoxy]acetyl]amino]ethoxy]ethoxy]acetyl]amino]butanoyl]amino]butanoyl]-[Lys^20,Leu^27]-Glucagon] | 10.24
CC(C)C[C@H](NC(=O)[C@H](Cc1ccc(O)cc1)NC(=O)[C@H](CCCCN)NC(=O)[C@H](CO)NC(=O)[C@H](Cc1ccc(O)cc1)NC(=O)[C@H](CC(=O)O)NC(=O)[C@H](CO)NC(=O)[C@@H](NC(=O)[C@H](Cc1ccccc1)NC(=O)[C@@H](NC(=O)[C@@H](Cc1ccccc1)NC(=O)[C@H](CCC(N)=O)NC(=O)[C@H](CO)NC(=O)[C@@H](N)Cc1c[nH]cn1)[C@@H](C)O)[C@@H](C)O)C(=O)N[C@@H](CC(=O)O)C(=O)N[C@@H](CO)C(=O)N[C@@H](CCCNC(=N)N)C(=O)N[C@@H](CCCNC(=N)N)C(=O)N[C@@H](C)C(=O)N[C@@H](CCC(N)=O)C(=O)N[C@@H](CC(=O)O)C(=O)N[C@@H](Cc1ccccc1)C(=O)N[C@H](C(=O)N[C@@H](CCCCNC(=O)CC[C@H](NC(=O)CC[C@H](NC(=O)COCCOCCNC(=O)COCCOCCNC(=O)CC[C@H](NC(=O)CCCCCCCCCCCCCCCCC(=O)O)C(=O)O)C(=O)O)C(=O)O)C(=O)N[C@@H](Cc1c[nH]c2ccccc12)C(=O)N[C@@H](CC(C)C)C(=O)N[C@@H](CC(C)C)C(=O)N[C@@H](CO)C(=O)N[C@H](C(=O)O)[C@@H](C)O)C(C)C [Example 99, N^ε24-[(4S)-4-carboxy-4-[[(4S)-4-carboxy-4-[[2-[2-[2-[[2-[2-[2-[[(4S)-4-carboxy-4-(17-carboxyheptadecanoylamino)butanoyl]amino]ethoxy]ethoxy]acetyl]amino]ethoxy]ethoxy]acetyl]amino]butanoyl]amino]butanoyl]-[D-Phe4,Lys24,Leu27,Ser28]-Glucagon] (H-HSQ[dF]TFTSDYSKYLDSRRAQDFVK([γGlu-γGlu-AEEA-AEEA-γGlu-C18 diacid])WLLST-OH) | 10.36
